Patent EP0400330A1, “Oxidation hair dyes” (Wella Aktiengesellschaft, priority 1989, dated 1990)

Legend:
[1] = Mutagenicity test battery (Ames, CA-Test, Mouse Lymphoma Test, SCE-Test), individual test not specified; type: cell-based; details: in some of the tests Ames, not said which
Excerpt: (§1) Der große und überraschende technische Fortschritt, der bei der Verwendung von 2-(2,5-Diaminophenyl)ethanol mit den vorstehend genannten Kupplersubstanzen erzielt werden kann, liegt vielmehr in den physiologischen Eigenschaften begründet.

[2] = Sensitising property (test not described)
Excerpt: Das 2-(2,5-Diaminophenyl)ethanol wird seit einiger Zeit als Bestandteil von Oxidationshaarfärbemitteln in der Patentliteratur erwähnt. Als möglicher Bestandteil von Oxidationshaarfärbemitteln ist es zum Beispiel in der eigenen europäischen Offenlegungsschrift 0 166 155 sowie in den eigenen deutschen Offenlegungsschriften 3 625 916, 3 627 398 und 3 706 565 sowie auch in der DE-OS 3 545 371 aufgeführt. Ferner fällt das 2-(2,5-Diaminophenyl)ethanol unter eine allgemeine Formel für 1-Hydroxyalkyl-2,5-diaminobenzolverbindungen, welche als Entwicklersubstanzen für Oxidationshaarfärbemittel in der eigenen europäischen Offenlegungsschrift 0 007 537 empfohlen werden. Die dort mehrfach konkret genannte Verbindung 1-Hydroxymethyl-2,5-diaminobenzol (2,5Diaminobenzylalkohol) hat sich jedoch als sensibilisierend erwiesen. Die ausgezeichnete Eignung der Entwicklersubstanz 2-(2,5-Diaminophenyl)-ethanol in Kombination mit den vorstehend genannten Kupplersubstanzen zur Lösung der gestellten Aufgabe wurde bisher nicht erkannt. Dementsprechend sind die erfindungsgemäßen EntwicklersubstanzKupplersubstanz-Kombinationen in keiner dieser Druckschriften beschrieben.
Die konkrete Darstellung des 2-(2,5-Diaminophenyl)ethanols ist bisher ebenfalls weder beschrieben noch hat diese Entwicklersubstanz Eingang in die Haarfärbepraxis gefunden. […]

Salmonella typhimurium [3] = test: Ames mutagenicity test of the developer substance; type: cell-based
Excerpt: as §1

CHO-Zellen = test: Chromosome aberration test in vitro (CA-Test); type: cell-based
Excerpt: as §1

Mouse Lymphoma = Mouse Lymphoma Test (point mutation in vitro); type: cell-based; details: Punktmutation in vitro
Excerpt: as §1

[4] = Sister-Chromatide-Exchange-Test (SCE-Test); type: cell-based
Excerpt: as §1

[5] = system: Salmonella typhimurium-Stämmen TA97, TA98 und TA100; test: Ames test of dyed hair strands; type: cell-based; design: key: +: mutagen; (+): schwach mutagen; -: nicht mutagen; details: hair dyed 30 Minuten at 40 Grad Celsius, in Anwesenheit von S9-Mix
Excerpt: Versuchsbedingungen: Haarsträhnchen aus 30-50 Haaren werden mit einem Mittel nach Beispiel 1, bei dem die Kupplersubstanz jeweils im äquimolaren Verhältnis zur Entwicklersubstanz enthalten war, getränkt. Die Strähnen wurden anschließend 30 Minuten lang bei 40 Grad Celsius im Klimaschrank aufbewahrt, sodann gründlich mit Wasser gespült und schließlich getrocknet. Die so gefärbten Haar wurden nun im 2,5 cm lange Stücke geschnitten und nach der Methodik von B.N. Ames an Salmonella typhimurium-Stämmen TA97, TA98 und TA100 in Anwesenheit von S9-Mix geprüft.

Salmonella typhimurium [6] = test: Ames test of hair dye solutions under oxidative conditions; details: hair dye solution containing the developer substance, unter oxidativen Bedingungen
[7] = Kupplersubstanz 2-Methylresorcin, äquimolar to the developer
[8] = Kupplersubstanz 3,4-Methylendioxyphenol, äquimolar to the developer
[9] = Kupplersubstanz 3-Aminophenol, äquimolar to the developer
[10] = Kupplersubstanz Resorcin, äquimolar to the developer

Compound	Mutagenität in einigen dieser Teste [1]	sensibilisierende Eigenschaften [2]	Mutagenität im Mutagenitätstest nach Ames (Salmonella typhimurium [3]; in Abwesenheit von Wasserstoffperoxid)	Mutagenität im Mutagenitätstest nach Ames (Salmonella typhimurium [3]; in Anwesenheit von Wasserstoffperoxid)	Mutagenität im Chromosomenaberrationstest an CHO-Zellen in vitro (CA-Test) (CHO-Zellen)	Mutagenität im Mouse Lymphoma Test (Mouse Lymphoma)	Mutagenität im Sister-Chromatide-Exchange-Test (SCE-Test) [4]	Amesteste von gefärbten Haarsträhnen [5, 7]	Amesteste von gefärbten Haarsträhnen [5, 8]	Amesteste von gefärbten Haarsträhnen [5, 9]	Amesteste von gefärbten Haarsträhnen [5, 10]	Amesteste von gefärbten Haarsträhnen ([5]; ohne Kupplersubstanz)	mutagene Wirkung von Haarfärbelösungen im Amestest (Salmonella typhimurium [6])
Nc1ccc(N)c(CO)c1 [2,5-Diaminobenzylalkohol, 1-Hydroxymethyl-2,5-diaminobenzol]	mutagenes Potential	sensibilisierend											
Nc1ccc(N)c(CCO)c1 [2-(2,5-Diaminophenyl)ethanol]			keinerlei Mutagenität	keinerlei Mutagenität	keinerlei Mutagenität	keinerlei Mutagenität	keinerlei Mutagenität	-	-	-	-	-	nicht mutagen
Nc1ccc(N)cc1 [p-Phenylendiamin, reference compound]								+	+	(+)	(+)	+	mutagenes Potential
